What was measured:
[1] = target: T1, MBL (Homo sapiens, UniProt P11226); assay: Affinity of common carbohydrate moieties for MBL; format: binding; settings: for affinity for MBL, rank order of common carbohydrate moieties: value = moieties ranked next below (>) or above (<)
[2] = Comparison of stability of MBL and Con A in glucose assay
Method: Example 5 was repeated using MBL-AF594 and ConA-AF594 as lectin with 110 kDa HMCV1-dextran as analyte analogue in physiological TRIS buffer (pH 7.4, sodium, potassium and calcium present in physiological concentrations). […] Measurements were taken at 5 minute intervals using a miniaturized time resolved fluorimeter.

[3] = target: T1, MBL; settings: cited from earlier work

T1 sequence (P11226 21-248, species assumed): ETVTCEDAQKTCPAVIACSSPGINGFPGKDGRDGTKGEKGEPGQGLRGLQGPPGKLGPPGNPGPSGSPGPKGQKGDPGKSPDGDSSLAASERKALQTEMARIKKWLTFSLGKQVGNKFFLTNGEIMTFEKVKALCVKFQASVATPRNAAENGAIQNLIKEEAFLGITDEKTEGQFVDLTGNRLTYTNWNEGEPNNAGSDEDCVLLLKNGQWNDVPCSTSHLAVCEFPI

Molecule	affinity for MBL, rank order of common carbohydrate moieties [1]	further results
O=C[C@@H](O)[C@@H](O)[C@H](O)[C@H](O)CO [D-Mannose]	> myo-inositol, D-glucose, D-arabinose, D-palatinose, D-turanose, D-sorbitol, D-ribose, D-tagatose	affinity / binding to MBL in words [1]: high affinity
O=C[C@@H](O)[C@H](O)[C@H](O)CO [D-arabinose]	> D-lyxose	
O=C(CO)[C@@H](O)[C@H](O)[C@H](O)CO [D-fructose]	> myo-inositol, D-glucose, D-arabinose, D-palatinose, D-turanose, D-sorbitol, D-ribose, D-tagatose	
O=C[C@H](O)[C@@H](O)[C@@H](O)[C@H](O)CO [D-galactose]	D-lyxose	affinity / binding to MBL in words [1]: very low affinity
O=C[C@H](O)[C@@H](O)[C@H](O)[C@H](O)CO [D-glucose]	> D-lyxose	affinity / binding to MBL in words [1]: high affinity
OC[C@H]1O[C@H](O[C@@H]2CO[C@](O)(CO)[C@@H](O)[C@@H]2O)[C@H](O)[C@@H](O)[C@@H]1O [D-leucrose]	> myo-inositol, D-glucose, D-arabinose, D-palatinose, D-turanose, D-sorbitol, D-ribose, D-tagatose	
O=C[C@@H](O)[C@@H](O)[C@H](O)CO [D-lyxose]	> lactose, L-arabinose, D-galactose	
OC[C@H]1O[C@H](OC[C@H]2OC(O)(CO)[C@@H](O)[C@@H]2O)[C@H](O)[C@@H](O)[C@@H]1O (stereo partly drawn) [D-palatinose]	> D-lyxose	
O=C[C@H](O)[C@H](O)[C@H](O)CO [D-ribose]	> D-lyxose	
OC[C@@H](O)[C@@H](O)[C@H](O)[C@@H](O)CO [D-sorbitol]	> D-lyxose	
O=C(CO)[C@@H](O)[C@@H](O)[C@H](O)CO [D-tagatose]	> D-lyxose	
C[C@H](O)[C@@H](O)[C@@H](O)[C@H](O)C=O [L-Fucose]	> myo-inositol, D-glucose, D-arabinose, D-palatinose, D-turanose, D-sorbitol, D-ribose, D-tagatose	
O=C[C@H](O)[C@@H](O)[C@@H](O)CO [L-arabinose]	D-lyxose	
CC(=O)N[C@H]1C(O)O[C@H](CO)[C@@H](O)[C@@H]1O (stereo partly drawn) [N-acetyl-D-glucosamine]	> myo-inositol, D-glucose, D-arabinose, D-palatinose, D-turanose, D-sorbitol, D-ribose, D-tagatose	affinity / binding to MBL in words [1]: high affinity
CC(=O)N[C@@H]1C(O)O[C@H](CO)[C@@H](O)[C@@H]1O (stereo partly drawn) [N-acetyl-D-mannosamine]	> myo-inositol, D-glucose, D-arabinose, D-palatinose, D-turanose, D-sorbitol, D-ribose, D-tagatose	
OC[C@H]1O[C@@](CO)(O[C@H]2O[C@H](CO)[C@@H](O[C@H]3O[C@H](CO)[C@@H](O)[C@H](O)[C@H]3O)[C@H](O)[C@H]2O)[C@@H](O)[C@@H]1O [erlose]	> myo-inositol, D-glucose, D-arabinose, D-palatinose, D-turanose, D-sorbitol, D-ribose, D-tagatose	
OC[C@H]1O[C@@H](O[C@H]2[C@H](O)[C@@H](O)C(O)O[C@@H]2CO)[C@H](O)[C@@H](O)[C@H]1O (stereo partly shown) [lactose]	D-lyxose	
O[C@H]1[C@H](O)[C@@H](O)[C@H](O)[C@@H](O)[C@H]1O [myo-inositol]	> D-lyxose	
Concanavalin A		reduction in the measured phase ([2]; after 20 days, 110 kDa HMCV1-dextran, physiological TRIS buffer pH 7.4): more than 10%; time stable at body temperature ([2]; assay conditions, body temperature): less than 20 days
D-turanose	> D-lyxose	
MBL-AF594: human MBL stained with Alexa Fluor 594 succinimidyl ester, 2.3 dyes per subunit		phase measurements at each glucose level over time ([2]; 110 kDa HMCV1-dextran, physiological TRIS buffer pH 7.4, glucose cycles 2.5-50 mM): constant over time
MBL: collagen-like C-type collectin, human MBL		time stable in a glucose assay ([2]; glucose assay): at least 17 days
SFGSGFGGGY [keratin peptide, peptide which mimics N-acetyl glucosamine]		inhibition of MBL [3]: can inhibit MBL
